Experimental findings from paper PMC12128149, “Molecular Hybrids of Quinoline and Sulfonamide: Design, Synthesis and in Vitro Anticancer Studies” (ChemistryOpen, 2024) are described below.

Holding throughout (type): cell-based
For one data set, the system named is RAMOS. The experiment in a line: MTS cytotoxicity testing, RAMOS cells. As to conditions: Homo sapiens, BTK high cells. The procedure:
(§1) Cell lines: The cells were sourced from either the DSMZ (Braunschweig, Germany) or the ATCC (Middlesex, UK). They were maintained in the recommended growth medium, supplemented with 10 % fetal calf serum, antibiotics (100 U/mL penicillin and […]), 2 mM glutamine, 1 mM NaHCO3, 1 mM sodium pyruvate, and 20 mM HEPES. The cells were incubated at 37 °C in a humidified atmosphere with 5 % CO2. Cell lines were routinely verified and checked for mycoplasma contamination every two weeks to once a month.
(§2) MTS cytotoxicity testing: An MTS assay method was developed in our laboratory for routine drug screening. This technique was used to assess the cytotoxicity of compounds, and the IC50 values were determined as previously described.[27]
(In general: Tetrazolium dyes change colour on reduction, which living cells bring about.)

Data set [1] in a line: MTS cytotoxicity testing, MRC‐5 non‐cancer cells. To be noted: human. The procedure:
as §1, §2

A short description of data set [2]: MTS cytotoxicity testing, BJ non‐cancer cells. To be noted: human. How it is done:
as §1, §2

For another data set, the system named is MOLT‐4. The experiment in a line: MTS cytotoxicity testing, MOLT‐4 cells. To be noted: Homo sapiens, ITK high cells. The procedure:
as §1, §2

The next data set has as its system HCT116. The experiment in a line: MTS cytotoxicity testing, HCT116 cells. As to conditions: Homo sapiens, HCT-116; ITK/BTK null cells. How it is done: as §1, §2
The next data set relates to Jurkat. The experiment in a line: MTS cytotoxicity testing, Jurkat cells. To be noted: Homo sapiens, ITK high cells. The procedure:
as §1, §2

The test system of a further data set is K562. The experiment in a line: MTS cytotoxicity testing, K562 cells. To be noted: Homo sapiens, BTK high cells. How it is done: as §1, §2
The next data set deals with U2OS. Put plainly: MTS cytotoxicity testing, U2OS cells. As to conditions: Homo sapiens, ITK/BTK null cells. How it is done:
as §1, §2

The subject of another data set is A549. The experiment in a line: MTS cytotoxicity testing, A549 cells. To be noted: Homo sapiens, ITK/BTK null cells. How it is done: as §1, §2
The subject of a further data set is CCRF‐CEM. The experiment in a line: MTS cytotoxicity testing, CCRF‐CEM cells. To be noted: Homo sapiens, ITK high cells. The procedure: as §1, §2

What is called IC50 is the concentration that gives 50% inhibition. Higher therefore signals lower potency.

Structures can show the parent of a compound that is named as a salt.

For `O=S(=O)(c1cc(-c2ccccc2)cc2cccnc12)N1CCCCC1` [9a, 6‐phenyl‐8‐(piperidin‐1‐ylsulfonyl)quinoline], the IC50 (in the data set on RAMOS; in [1]; in [2]; in the data set on MOLT‐4; in the data set on HCT116; in the data set on Jurkat) was above 50 µM each time. For the same compound, the concentration for half-maximal inhibition (IC50) in the data set with K562, with U2OS, with A549 and in the data set with CCRF‐CEM was above 50 µM each time.

Regarding `O=S(=O)(c1cc(-c2cccc(Cl)c2)cc2cccnc12)N1CCCCC1` [9b, 6‐(3‐chlorophenyl)‐8‐(piperidin‐1‐ylsulfonyl)quinoline], the IC50 (in the data set on RAMOS; in data set [1]; in [2]; with MOLT‐4; in the data set on HCT116; in the data set on Jurkat) was above 50 µM each time. For the same compound, the IC50 in the data set on K562, in the data set on U2OS, in the data set on A549 and in the data set with CCRF‐CEM was above 50 µM each time.

As for `O=S(=O)(c1cc(-c2ccccc2F)cc2cccnc12)N1CCCCC1` [9c, 6‐(2‐fluorophenyl)‐8‐(piperidin‐1‐ylsulfonyl)quinoline], the half-maximal inhibitory concentration (IC50) is above 50 µM in the data set with RAMOS; above 50 µM in [1]; above 50 µM in data set [2]; above 50 µM in the data set on MOLT‐4; above 50 µM in the data set on HCT116; 12.7 ± 5.45 µM with Jurkat. In addition, the IC50 in the data set on K562, with U2OS, in the data set on A549 and in the data set with CCRF‐CEM was above 50 µM each time.

On to `O=S(=O)(c1cc(-c2ccccc2Br)cc2cccnc12)N1CCCCC1` [9d, 6‐(2‐bromophenyl)‐8‐(piperidin‐1‐ylsulfonyl)quinoline], for which the IC50 was 12.7 ± 3.71 µM in the data set on RAMOS; above 50 µM in data set [1]; above 50 µM in data set [2]; above 50 µM in the data set on MOLT‐4; above 50 µM in the data set on HCT116; 13.5 ± 6.25 µM with Jurkat. In addition, the IC50 in the data set with K562, in the data set with U2OS, with A549 and with CCRF‐CEM was above 50 µM in each case.

Turning to `O=S(=O)(c1cc(-c2ccc(O)cc2)cc2cccnc12)N1CCCCC1` [9e, 4‐(8‐(piperidin‐1‐ylsulfonyl)quinolin‐6‐yl)phenol], the IC50 with RAMOS is 5.47 ± 1.71 µM; in data set [1] it was above 50 µM; in data set [2], above 50 µM; in the data set on MOLT‐4, above 50 µM; with HCT116, above 50 µM; with Jurkat, 7.43 ± 7.4 µM. Besides, the IC50 in the data set with K562 was 5.47 ± 1.71 µM; in the data set with U2OS, above 50 µM; with A549, above 50 µM; with CCRF‐CEM it was 28.6 ± 7.64 µM.

Turning to `O=S(=O)(c1cc(-c2ccc(O)c(F)c2)cc2cccnc12)N1CCCCC1` [9f, 2‐fluoro‐4‐(8‐(piperidin‐1‐ylsulfonyl)quinolin‐6‐yl)phenol], the IC50 in the data set with RAMOS is 9.69 ± 2.41 µM; in data set [1], above 50 µM; in data set [2], above 50 µM; with MOLT‐4, above 50 µM; with HCT116 it was above 50 µM; in the data set with Jurkat, 13 ± 6.43 µM. Besides, the half-maximal inhibitory concentration (IC50) is 9.69 ± 2.41 µM with K562, above 50 µM in the data set with U2OS, above 50 µM in the data set on A549 and 17.1 ± 4.64 µM with CCRF‐CEM.

Turning to `O=S(=O)(c1cc(-c2cc(Cl)c(O)c(Cl)c2)cc2cccnc12)N1CCCCC1` [9g, 2,6‐dichloro‐4‐(8‐(piperidin‐1‐ylsulfonyl)quinolin‐6‐yl)phenol], the IC50 (with RAMOS; in [1]; in data set [2]; with MOLT‐4; in the data set on HCT116; in the data set on Jurkat) was above 50 µM each time. For the same compound, the IC50 in the data set with K562, in the data set with U2OS, with A549 and with CCRF‐CEM was above 50 µM in each case.

Take `COc1cc(-c2cc(S(=O)(=O)N3CCCCC3)c3ncccc3c2)cc(Cl)c1O` [9h, 2‐chloro‐6‐methoxy‐4‐(8‐(piperidin‐1‐ylsulfonyl)quinolin‐6‐yl)phenol]: the IC50 (with RAMOS; in [1]; in data set [2]; in the data set on MOLT‐4; with HCT116; in the data set with Jurkat) was above 50 µM throughout. The IC50 in the data set with K562, with U2OS, in the data set on A549 and in the data set on CCRF‐CEM was above 50 µM throughout.

`COc1cccc(-c2cc(S(=O)(=O)N3CCCCC3)c3ncccc3c2)c1` [9i, 6‐(3‐methoxyphenyl)‐8‐(piperidin‐1‐ylsulfonyl)quinoline]: the IC50 in the data set on RAMOS was above 50 µM; in [1], above 50 µM; in data set [2], above 50 µM; with MOLT‐4 it was above 50 µM; with HCT116, above 50 µM; in the data set with Jurkat, 8.43 ± 6.43 µM. Also, the IC50 in the data set with K562 was above 50 µM; in the data set with U2OS it was above 50 µM; in the data set with A549, above 50 µM; in the data set with CCRF‐CEM, 38.6 ± 4.64 µM.

Regarding `Nc1cccc(-c2cc(S(=O)(=O)N3CCCCC3)c3ncccc3c2)c1` [9j, 3‐(8‐(piperidin‐1‐ylsulfonyl)quinolin‐6‐yl)aniline hydrochloride], the IC50 in the data set on RAMOS was above 50 µM; in [1], above 50 µM; in [2] it was above 50 µM; in the data set on MOLT‐4 it was 5.57 ± 7.56 µM; in the data set on HCT116, above 50 µM; with Jurkat, above 50 µM. The IC50 with K562, with U2OS, in the data set with A549 and in the data set with CCRF‐CEM was above 50 µM each time.

`N#Cc1cccc(-c2cc(S(=O)(=O)N3CCCCC3)c3ncccc3c2)c1` [9k, 3‐(8‐(piperidin‐1‐ylsulfonyl)quinolin‐6‐yl)benzonitrile]: the IC50 (with RAMOS; in [1]; in [2]; in the data set with MOLT‐4; in the data set on HCT116; in the data set on Jurkat) was above 50 µM in each case. Further, the IC50 in the data set with K562, with U2OS, with A549 and in the data set with CCRF‐CEM was above 50 µM each time.

With `O=S(=O)(c1cc(-c2cccc(OC(F)(F)F)c2)cc2cccnc12)N1CCCCC1` [9l, 8‐(piperidin‐1‐ylsulfonyl)‐6‐(3‐(trifluoromethoxy)phenyl)quinolone], the 50% inhibitory concentration (IC50) is above 50 µM in the data set on RAMOS; above 50 µM in data set [1]; above 50 µM in data set [2]; above 50 µM in the data set with MOLT‐4; above 50 µM in the data set on HCT116; 12.1 ± 6.43 µM with Jurkat. Besides, the IC50 with K562, in the data set on U2OS, in the data set with A549 and in the data set with CCRF‐CEM was above 50 µM throughout.

Turning to `O=S(=O)(c1cc(-c2ccc(C(F)(F)F)cc2)cc2cccnc12)N1CCCCC1` [9m, 8‐(piperidin‐1‐ylsulfonyl)‐6‐(4‐(trifluoromethyl)phenyl)quinoline], the IC50 in the data set with RAMOS is 8.11 ± 1.29 µM; in [1], above 50 µM; in [2] it was above 50 µM; with MOLT‐4, above 50 µM; in the data set with HCT116, above 50 µM; in the data set on Jurkat, 11.3 ± 1.13 µM. For the same compound, the IC50 in the data set with K562, in the data set on U2OS, in the data set on A549 and with CCRF‐CEM was above 50 µM throughout.

In the case of `O=S(=O)(c1cc(-c2ccnc(F)c2)cc2cccnc12)N1CCCCC1` [9n, 6‐(2‐fluoropyridin‐4‐yl)‐8‐(piperidin‐1‐ylsulfonyl)quinoline], the IC50 in the data set with RAMOS is 2.76 ± 0.79 µM; in data set [1], above 50 µM; in data set [2] it was above 50 µM; in the data set on MOLT‐4, above 50 µM; in the data set on HCT116, above 50 µM; with Jurkat, above 50 µM. Moreover, the IC50 in the data set on K562 is above 50 µM; in the data set with U2OS, above 50 µM; with A549, above 50 µM; with CCRF‐CEM, 19.4 ± 0.78 µM.

Turning to `COc1cc(-c2cc(S(=O)(=O)N3CCCCC3)c3ncccc3c2)ccn1` [9o, 6‐(2‐methoxypyridin‐4‐yl)‐8‐(piperidin‐1‐ylsulfonyl)quinoline], the IC50 is 6.76 ± 0.79 µM in the data set on RAMOS; above 50 µM in [1]; above 50 µM in data set [2]; above 50 µM with MOLT‐4; above 50 µM in the data set on HCT116; 11.4 ± 3.49 µM in the data set on Jurkat. In addition, the IC50 in the data set on K562 was above 50 µM; with U2OS, above 50 µM; in the data set with A549, above 50 µM; in the data set with CCRF‐CEM, 15.3 ± 2.25 µM.

On to `O=S(=O)(c1cc(-c2ccc3nc[nH]c3c2)cc2cccnc12)N1CCCCC1` [9p, 6‐(1H‐benzo[d]imidazol‐6‐yl)‐8‐(piperidin‐1‐ylsulfonyl)quinoline hydrochloride], for which the IC50 in the data set with RAMOS was above 50 µM; in data set [1], above 50 µM; in data set [2], above 50 µM; with MOLT‐4, above 50 µM; with HCT116, above 50 µM; in the data set on Jurkat it was 21.2 ± 3.49 µM. In addition, the IC50 was above 50 µM in the data set with K562, above 50 µM in the data set with U2OS, above 50 µM with A549 and 13.2 ± 1.25 µM with CCRF‐CEM.
